Laboratory results taken from EPA's ToxValDB 9.5 (doi:10.2903/j.efsa.2013.3373).
“And” between values parts separate entries of the source, which are not always exact repeats. Equal entries are not always repeated.

Key:
[1] = system: Mus musculus; details: acute, oral, mortality
[2] = system: Neomysis kadiakensis; details: chronic/long-term; duration: 28 days; reproduction
[3] = system: Daphnia magna; details: chronic/long-term; duration: 21 days; reproduction
[4] = system: Oncorhynchus mykiss; details: mortality
[5] = system: Apis mellifera; details: acute, duration: 96 hours, mortality
[6] = system: Colinus virginianus; details: for LD50: acute, oral, mortality
[7] = system: Canidae; details: subchronic; duration: 3 months; oral; gavage; Dog Other; organ weight
[8] = system: Danio rerio; details: chronic; duration: 148 days
[9] = system: Rattus norvegicus; details: for NOAEL: reproduction developmental
[10] = system: Tagia sp.
[11] = system: Anas platyrhynchos
[12] = system: Bibionidae; details: chronic/long-term; duration: 28 days; development
[13] = system: Chironomus tentans; details: acute; duration: 10 days; mortality
[14] = system: Cyprinodon variegatus; details: chronic/long-term; duration: 41 days; mortality

N#Cc1ccc(CC(=NNC(=O)Nc2ccc(OC(F)(F)F)cc2)c2cccc(C(F)(F)F)c2)cc1 (mixture of isomers) [Metaflumizone]
LD50 ([1]; duration: 7 days, diet): 101 mg/kg-day
LD50 [1]: > 5000 mg/kg-day
NOEC [2]: 0.654 µg/L
NOEC [3]: 1.47 µg/L
LC50 ([4]; acute, duration: 96 hours): > 0.228 µg/mL
NOEC ([4]; chronic/long-term, duration: 93 days): 1.47 µg/L
LD50 ([5]; dermal): 1.65 µg/piece
LD50 ([5]; oral, unspecified): 2.43 µg/piece
LD50 ([6]; diet): 306 mg/kg-day
LD50 [6]: > 2020 mg/kg-day
NOEL ([6]; reproduction developmental, reproduction): 0.53 mg/kg-day
NOAEL [7]: 6 mg/kg-day
NOEC [8]: 0.015 mg/L
LD50 ([9]; acute, oral, mortality): > 5000 mg/kg-day
NOAEL ([9]; body weight): 40 mg/kg-day
NOAEL ([9]; reproduction): 20 mg/kg-day
LC50 ([10]; acute, duration: 14 days, mortality): > 1000 mg/kg
NOEC ([10]; chronic/long-term): 6.92 mg/kg
LD50 ([11]; acute, oral, unspecified, mortality): > 2020 mg/kg-day
NOEL ([11]; reproductive, reproduction): < 4.4 mg/kg-day and 1.8 mg/kg-day
NOEC [12]: 2.56 µg/L
LC50 [13]: 1800 µg/kg
NOEC [14]: 1.15 µg/L
